This is an account of results in US8324226B2, “Therapeutic oxy-phenyl-aryl compounds and their use” (Cancer Research Technology Limited, priority 2007, dated 2012).

As usually defined, the IC50 is the concentration that inhibits the measured activity by half.

Several values for one entry are separate records, joined by “and”; a condition that tells them apart may be missing. Equal entries are not always repeated. Where two headings read alike, the source gives them in different places. Some results are limits rather than exact numbers.

This experiment deals with T1, CHK2 (Homo sapiens, UniProt O96017).
T1 construct: made in house
Description: CHK2 kinase activity assay (DELFIA, phosphorylation of a CDC25C peptide). In kind it is biochemical. Conditions: ATP 30 μM, CHK2 1 nM, read-out: IC50, inhibition of CHK2 kinase activity in vitro.

T1 sequence (O96017 whole entry): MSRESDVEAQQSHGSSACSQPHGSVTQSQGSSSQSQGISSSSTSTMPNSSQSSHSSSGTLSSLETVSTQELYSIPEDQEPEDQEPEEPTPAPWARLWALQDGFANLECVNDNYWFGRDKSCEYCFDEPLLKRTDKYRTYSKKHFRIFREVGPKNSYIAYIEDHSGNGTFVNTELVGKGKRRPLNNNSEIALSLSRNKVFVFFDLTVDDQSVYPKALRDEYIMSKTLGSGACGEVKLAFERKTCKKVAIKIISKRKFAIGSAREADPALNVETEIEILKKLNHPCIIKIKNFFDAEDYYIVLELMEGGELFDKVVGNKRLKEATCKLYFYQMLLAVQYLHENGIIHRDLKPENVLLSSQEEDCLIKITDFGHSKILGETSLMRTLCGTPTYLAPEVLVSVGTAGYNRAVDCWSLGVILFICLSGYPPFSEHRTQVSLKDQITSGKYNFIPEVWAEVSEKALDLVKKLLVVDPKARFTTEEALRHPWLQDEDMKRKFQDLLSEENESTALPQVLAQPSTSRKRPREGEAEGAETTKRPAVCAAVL

On to `OCC#Cc1ccc2c(N[C@H]3CCNC3)nc(-c3ccccc3O)nc2c1` [Compound A-054, (S)-2-(7-(3-Hydroxyprop-1-ynyl)-4-(pyrrolidin-3-ylamino)quinazolin-2-yl)phenol], for which the IC50 reads like this: (first set of tested compounds) below 3 µM; (following further studies) at most 0.3 µM.

Regarding `Oc1ccc(Cl)cc1-c1nc(NC2CCCCNC2)c2ccccc2n1` (stereo not shown) [Compound A-058, 2-(4-(Azepan-3-ylamino)quinazolin-2-yl)-4-chlorophenol], under “following further studies”, the IC50 is at most 0.3 µM.

As to `CC(C)(O)CCc1ccc2c(N[C@H]3CCNC3)nc(-c3cc(F)ccc3O)nc2c1` [Compound A-097, (S)-4-Fluoro-2-(7-(3-hydroxy-3-methylbutyl)-4-(pyrrolidin-3-ylamino)quinazolin-2-yl)phenol], for the setting “following further studies”, the IC50 was at most 0.3 µM.

In the case of `Oc1ccc(F)cc1-c1nc(NC2CCCCNC2)c2ccccc2n1` (stereo not shown) [Compound A-059, 2-(4-(Azepan-3-ylamino)quinazolin-2-yl)-4-fluorophenol], where the note is “following further studies”, the IC50 is at most 0.3 µM.

With `CN(C)C(=O)[C@H]1C[C@H](Nc2nc(-c3cc(F)ccc3O)nc3ccccc23)CN1` [Compound A-046, (2R,4S)-4-(2-(5-Fluoro-2-hydroxyphenyl)quinazolin-4-ylamino)-N,N-dimethylpyrrolidine-2-carboxamide], the IC50 was below 3 µM (first set of tested compounds) and at most 0.3 µM (following further studies).

As to `C[C@@H]1CNC[C@H]1Nc1nc(-c2cc(F)ccc2O)nc2ccccc12` (relative stereo) [Compound A-099, 4-Fluoro-2-(4-(trans-4-methylpyrrolidin-3-ylamino)quinazolin-2-yl)phenol], the IC50 (following further studies) is at most 0.3 µM.

In the case of `Oc1ccccc1-c1nccc(N[C@H]2CCNC2)n1` [Compound D-002], the IC50 runs as follows: (first set of tested compounds) 3 to 30 µM; (following further studies) 3 to 30 µM and 8.2 µM.

As for `Oc1ccc(-c2cccc(F)c2)cc1-c1nc(N[C@H]2CCNC2)c2ccccc2n1` [Compound A-107, (S)-3′-Fluoro-3-(4-(pyrrolidin-3-ylamino)quinazolin-2-yl)biphenyl-4-ol], the IC50 (following further studies) lay in the range of 0.3 to 3 µM.

Turning to `OCC#Cc1ccc2nc(-c3ccccc3O)nc(N[C@H]3CCNC3)c2c1` [Compound A-052, (S)-2-(6-(3-hydroxyprop-1-ynyl)-4-(pyrrolidin-3-ylamino)quinazolin-2-yl)phenol], the IC50 reads like this: (first set of tested compounds) below 3 µM; (following further studies) at most 0.3 µM.

On to `COc1cccc([C@@H]2CNC[C@H]2Nc2nc(-c3cc(F)ccc3O)nc3ccccc23)c1` (relative stereo) [Compound A-091, 4-Fluoro-2-(4-(trans-4-(3-methoxyphenyl)pyrrolidin-3-ylamino)quinazolin-2-yl)phenol], for which the IC50 (following further studies) was at most 0.3 µM.

With `Oc1ccc(F)cc1-c1nc(N[C@H]2CCNC2)c2ccc(F)cc2n1` [Compound A-114, (S)-4-Fluoro-2-(7-fluoro-4-(pyrrolidin-3-ylamino)quinazolin-2-yl)phenol], the IC50 (following further studies) was at most 0.3 µM.

For `COc1ccc2c(N[C@@H]3CN[C@@H](CO)C3)nc(-c3cc(F)ccc3O)nc2c1` [Compound A-087, 4-Fluoro-2-(4-((3S,5R)-5-(hydroxymethyl)pyrrolidin-3-ylamino)-7-methoxyquinazolin-2-yl)phenol], under “following further studies”, the IC50 was at most 0.3 µM.

Turning to `O=C([C@H]1C[C@H](Nc2nc(-c3ccccc3O)nc3ccccc23)CN1)N1CCCC1` [Compound A-034, ((2R,4S)-4-(2-(2-Hydroxyphenyl)quinazolin-4-ylamino)pyrrolidin-2-yl)(pyrrolidin-1-yl)methanone], the IC50 runs as follows: (first set of tested compounds) below 3 µM; (following further studies) at most 0.3 µM.

`Oc1ccc(F)cc1-c1nc(N[C@H]2CCNC2)c2ccc(-c3cn[nH]c3)cc2n1` [Compound A-068, (S)-2-(7-(1H-Pyrazol-4-yl)-4-(pyrrolidin-3-ylamino)quinazolin-2-yl)-4-fluorophenol]: the IC50 (following further studies) was at most 0.3 µM.

Consider `NC1CCCC(Nc2nc(-c3ccccc3O)nc3ccccc23)C1` (stereo not shown) [Compound B-004, 2-[4-(3-Aminocyclohexylamino)-quinazolin-2-yl]-phenol], for which the IC50 reads like this: (first set of tested compounds) below 3 µM; (following further studies) 0.3 to 3 µM.

With `NC(=O)c1ccc(-c2ccc(O)c(-c3nc(N[C@H]4CCNC4)c4ccccc4n3)c2)cc1` [Compound A-101, (S)-4′-Hydroxy-3′-(4-(pyrrolidin-3-ylamino)quinazolin-2-yl)biphenyl-4-carboxamide], the IC50 (following further studies) lay within 3 to 30 µM.

Turning to `Oc1ccccc1-c1nc(N[C@H]2CCNC2)c2cc(-c3cn[nH]c3)ccc2n1` [Compound A-029, (S)-2-(6-(1H-Pyrazol-4-yl)-4-(pyrrolidin-3-ylamino)quinazolin-2-yl)phenol], the concentration for half-maximal inhibition (IC50) is below 3 µM (first set of tested compounds) and 0.3 to 3 µM (following further studies).

On to `Oc1ccc(-c2ccc(F)cc2)cc1-c1nc(N[C@H]2CCNC2)c2ccccc2n1` [Compound A-100, (S)-4′-Fluoro-3-(4-(pyrrolidin-3-ylamino)quinazolin-2-yl)biphenyl-4-ol], for which the IC50 (following further studies) is 3 to 30 µM.

Take `Oc1ccc(Cl)cc1-c1nc(N[C@@H]2CNC[C@H]2c2ccccc2)c2ccccc2n1` (relative stereo) [Compound A-063, 4-Chloro-2-(4-(trans-4-phenylpyrrolidin-3-ylamino)quinazolin-2-yl)phenol]: the IC50 (following further studies) was in the range of 0.3 to 3 µM.

In the case of `COCCOc1cc2c(N[C@H]3CCNC3)nc(-c3cc(F)ccc3O)nc2cc1OC` [Compound A-103, (S)-4-Fluoro-2-(7-methoxy-6-(2-methoxyethoxy)-4-(pyrrolidin-3-ylamino)quinazolin-2-yl)phenol], where the note is “following further studies”, the IC50 was at most 0.3 µM.

Regarding `Oc1ccc(Br)cc1-c1nc(N[C@H]2CCNC2)c2ccccc2n1` [Compound A-041, (S)-4-Bromo-2-(4-(pyrrolidin-3-ylamino)quinazolin-2-yl)phenol], the IC50 runs as follows: (first set of tested compounds) below 3 µM; (following further studies) at most 0.3 µM.

As to `Nc1nnc(-c2ccc(O)c(-c3nc(N[C@H]4CCNC4)c4ccccc4n3)c2)s1` [Compound A-110, (S)-4-(5-Amino-1,3,4-thiadiazol-2-yl)-2-(4-(pyrrolidin-3-ylamino)quinazolin-2-yl)phenol], the IC50 (following further studies) is at most 0.3 µM.

Turning to `Oc1ccc(Cl)cc1-c1nc(N[C@@H]2CCCNC2)c2ccccc2n1` [Compound A-013, (R)-4-Chloro-2-(4-(piperidin-3-ylamino)quinazolin-2-yl)phenol], the IC50 reads like this: (first set of tested compounds) below 3 µM; (following further studies) at most 0.3 µM.

For the compound `CN(CCO)C(=O)[C@H]1C[C@H](Nc2nc(-c3ccccc3O)nc3ccccc23)CN1` [Compound A-047, (2R,4S)-N-(2-Hydroxyethyl)-4-(2-(2-hydroxyphenyl)quinazolin-4-ylamino)-N-methylpyrrolidine-2-carboxamide], the IC50 (first set of tested compounds) is below 3 µM and the IC50 (following further studies) fell in the range of 0.3 to 3 µM.

On to `COC(=O)[C@H]1C[C@H](Nc2nc(-c3cc(Cl)ccc3O)nc3ccccc23)CN1` [Compound A-026, (2R,4S)-Methyl 4-(2-(5-chloro-2-hydroxyphenyl)quinazolin-4-ylamino)pyrrolidine-2-carboxylate], for which the IC50 (first set of tested compounds) was below 3 µM and the IC50 (following further studies) was at most 0.3 µM.

As to `COC/C=C/c1ccc2c(N[C@H]3CCNC3)nc(-c3ccccc3O)nc2c1` [Compound A-078, (S,E)-2-(7-(3-Methoxyprop-1-enyl)-4-(pyrrolidin-3-ylamino)quinazolin-2-yl)phenol], where the note is “following further studies”, the IC50 was at most 0.3 µM.

Turning to `CNC(=O)[C@H]1C[C@H](Nc2nc(-c3ccccc3O)nc3ccccc23)CN1` [Compound A-032, (2R,4S)-4-(2-(2-Hydroxyphenyl)quinazolin-4-ylamino)-N-methylpyrrolidine-2-carboxamide], the IC50 by setting is: (first set of tested compounds) below 3 µM; (following further studies) 0.3 to 3 µM.

`O=C([C@H]1C[C@H](Nc2nc(-c3ccccc3O)nc3ccccc23)CN1)N1CCOCC1` [Compound A-038, ((2R,4S)-4-(2-(2-Hydroxyphenyl)quinazolin-4-ylamino)pyrrolidin-2-yl)(morpholino)methanone]: the IC50 (first set of tested compounds) was below 3 µM and the IC50 (following further studies) is at most 0.3 µM.

As for `CN1CCC[C@@H](Nc2nc(-c3ccccc3O)nc3ccccc23)C1` [Compound A-008, 2-[4-((R)-1-Methylpiperidin-3-ylamino)-quinazolin-2-yl]-phenol], the IC50 is below 3 µM (first set of tested compounds) and 0.3 to 3 µM (following further studies).

Consider `Oc1ccc(-c2ccsc2)cc1-c1nc(N[C@H]2CCNC2)c2ccccc2n1` [Compound A-108, (S)-2-(4-(Pyrrolidin-3-ylamino)quinazolin-2-yl)-4-(thiophen-3-yl)phenol], for which the IC50 (following further studies) lay in the range of 0.3 to 3 µM.

In the case of `Oc1ccc(F)cc1-c1nc(N[C@@H]2CCCNC2)c2ccccc2n1` [Compound A-014, (R)-4-Fluoro-2-(4-(piperidin-3-ylamino)quinazolin-2-yl)phenol], the IC50 by setting is: (first set of tested compounds) below 3 µM; (following further studies) at most 0.3 µM.

As to `CC(C)(O)C#Cc1ccc2nc(-c3cc(F)ccc3O)nc(N[C@H]3CCNC3)c2c1` [Compound A-109, (S)-4-Fluoro-2-(6-(3-hydroxy-3-methylbut-1-ynyl)-4-(pyrrolidin-3-ylamino)quinazolin-2-yl)phenol], the IC50 (following further studies) lay in the range of 0.3 to 3 µM.

Turning to `COc1ccccc1[C@@H]1CNC[C@H]1Nc1nc(-c2cc(F)ccc2O)nc2ccccc12` (relative stereo) [Compound A-092, 4-Fluoro-2-(4-trans(4-(2-methoxyphenyl)pyrrolidin-3-ylamino)quinazolin-2-yl)phenol], the IC50 (following further studies) was 0.3 to 3 µM.

In the case of `CC(C)(O)C#Cc1ccc2c(N[C@H]3CCNC3)nc(-c3cc(F)ccc3O)nc2c1` [Compound A-093, (S)-4-Fluoro-2-(7-(3-hydroxy-3-methylbut-1-ynyl)-4-(pyrrolidin-3-ylamino)quinazolin-2-yl)phenol], the IC50 (following further studies) was at most 0.3 µM.

As to `Oc1ccccc1-c1nc(N[C@H]2CCNC2)c2cc(-c3ccccc3)ccc2n1` [Compound A-025, (S)-2-(6-Phenyl-4-(pyrrolidinyl-3-ylamino)quinazolin-2-yl)phenol], the IC50 by setting is: (first set of tested compounds) 3 to 30 µM; (following further studies) 3 to 30 µM.

Regarding `O=C(O)C1(Nc2nc(-c3cc(Cl)ccc3O)nc3ccccc23)CCNC1` (stereo not shown) [Compound A-064, 3-(2-(5-Chloro-2-hydroxyphenyl)quinazolin-4-ylamino)pyrrolidine-3-carboxylic acid], the IC50 (following further studies) lay in the range of 3 to 30 µM.
